Experimental findings from patent US20170210723A1, “MOLECULES HAVING PESTICIDAL UTILITY, AND INTERMEDIATES, COMPOSITIONS, AND PROCESSES, RELATED THERETO” (priority 2016, published 2017) are described below.

Common to all, as to assay type: in vivo
Data set [1] has as its system Beet Armyworm (Spodoptera exigua). The experiment in a line: Bioassays on BAW, 128-well diet tray assay. To be noted: Spodoptera exigua, 168 h; 50 μg/cm^2 on artificial diet, second instar larvae, five to seven days; read-out: BAW % Control (or Mortality) rating.
The subject of data set [2] is Cabbage Looper (Trichoplusia ni). The data set is described as follows: Bioassays on CL, 128-well diet tray assay. To be noted: Trichoplusia ni, 168 h; 50 μg/cm^2 on artificial diet, second instar larvae, five to seven days; read-out: CL % Control (or Mortality) rating. In outline: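 Second-instar larvae (1–5 per well) were fed diet surface-treated with 50 μg/cm^2 compound, eight wells each. After five to seven days at 25° C. under a 14:10 photoperiod, mortality was scored per well and the eight wells averaged.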

Data set [3] relates to Yellow Fever Mosquito (Aedes aegypti). The experiment in a line: Bioassays on Yellow Fever Mosquito larvae, 96-well plate. To be noted: from 4000 ppm DMSO master plate, about 1 day-old larvae, 3 days. The essentials: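 Aedes aegypti larvae about 1 day old, in water with liver powder, exposed in 96-well plates to compounds from a 4000 ppm DMSO master solution diluted in 90:10 water:acetone. Plates covered and held at room temperature for 3 days, then each well scored for mortality; 6 replicate plates.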

The term mortality denotes the percentage killed. As for `C[C@H](CSCC(F)(F)F)NC(=O)c1ccc(/C=C/C(c2cc(Cl)cc(Cl)c2)C(F)(F)F)cc1C(F)(F)F` (stereo partly drawn) [F88, 4-((E)-3-(3,5-Dichlorophenyl)-4,4,4-trifluorobut-1-en-1-yl)-N—((R)-1-((2,2,2-trifluoroethyl)thio)propan-2-yl)-2-(trifluoromethyl)benzamide], the mortality at 50 µg/cm2 in data set [1] and in data set [2] was 50 to 100% in each case. Moreover, in data set [3], the “YFM % Control (or Mortality) rating” value is “A (80-100)”.
On to `Cc1cc(/C=C/C(c2cc(Cl)cc(Cl)c2)C(F)(F)F)ccc1C(=O)N[C@H](C)CSCC(F)(F)F` (stereo partly drawn) [F89, 4-((E)-3-(3,5-Dichlorophenyl)-4,4,4-trifluorobut-1-en-1-yl)-2-methyl-N—((R)-1-((2,2,2-trifluoroethyl)thio)propan-2-yl)benzamide], for which the mortality at 50 µg/cm2 in data set [1] and in data set [2] was 50 to 100% throughout. Moreover, the “YFM % Control (or Mortality) rating” value in data set [3] is “A (80-100)”.
For `C[C@H](C[S+]([O-])CC(F)(F)F)NC(=O)c1ccc(/C=C/C(c2cc(Cl)cc(Cl)c2)C(F)(F)F)cc1C(F)(F)F` (stereo partly drawn) [F90, 4-((E)-3-(3,5-Dichlorophenyl)-4,4,4-trifluorobut-1-en-1-yl)-N-((2R)-1-((2,2,2-trifluoroethyl)sulfinyl)propan-2-yl)-2-(trifluoromethyl)benzamide], the mortality at 50 µg/cm2 in data set [1] and in data set [2] was 50 to 100% in each case. In addition, the “YFM % Control (or Mortality) rating” value in data set [3] is “A (80-100)”.
As to `Cc1cc(/C=C/C(c2cc(Cl)cc(Cl)c2)C(F)(F)F)ccc1C(=O)N[C@H](C)C[S+]([O-])CC(F)(F)F` (stereo partly drawn) [F91, 4-((E)-3-(3,5-Dichlorophenyl)-4,4,4-trifluorobut-1-en-1-yl)-2-methyl-N-((2R)-1-((2,2,2-trifluoroethyl)sulfinyl)propan-2-yl)benzamide], the mortality at 50 µg/cm2 in data set [1] and in data set [2] was 50 to 100% each time. Further, in data set [3], the “YFM % Control (or Mortality) rating” value is “A (80-100)”.
`Cc1cc(/C=C/C(c2cc(Cl)cc(Cl)c2)C(F)(F)F)ccc1C(=O)N[C@H](C)CS(=O)(=O)CC(F)(F)F` (stereo partly drawn) [F92, 4-((E)-3-(3,5-Dichlorophenyl)-4,4,4-trifluorobut-1-en-1-yl)-2-methyl-N—((R)-1-((2,2,2-trifluoroethyl)sulfonyl)propan-2-yl)benzamide]: the mortality at 50 µg/cm2 in data set [1] and in data set [2] was 50 to 100% in each case. Moreover, the “YFM % Control (or Mortality) rating” value in data set [3] is on record as “A (80-100)”.
For `C[C@H](CS(=O)(=O)CC(F)(F)F)NC(=O)c1ccc(/C=C/C(c2cc(Cl)cc(Cl)c2)C(F)(F)F)cc1C(F)(F)F` (stereo partly drawn) [F93, 4-((E)-3-(3,5-Dichlorophenyl)-4,4,4-trifluorobut-1-en-1-yl)-N—((R)-1-((2,2,2-trifluoroethyl)sulfonyl)propan-2-yl)-2-(trifluoromethyl)benzamide], the mortality at 50 µg/cm2 in data set [1] and in data set [2] was 50 to 100% in each case. In addition, in data set [3], the “YFM % Control (or Mortality) rating” value is recorded as “A (80-100)”.
Regarding `C[C@H](C[S+]([O-])CC(F)(F)F)NC(=O)c1ccc(/C=C/C(c2cc(Cl)cc(Cl)c2)C(F)(F)F)cc1Cl` (stereo partly drawn) [F94, 2-Chloro-4-((E)-3-(3,5-dichlorophenyl)-4,4,4-trifluorobut-1-en-1-yl)-N-((2R)-1-((2,2,2-trifluoroethyl)sulfinyl)propan-2-yl)benzamide], the mortality at 50 µg/cm2 in data set [1] and in data set [2] was 50 to 100% each time. The “YFM % Control (or Mortality) rating” value in data set [3] is recorded as “A (80-100)”.
Take `C[C@H](CS(=O)(=O)CC(F)(F)F)NC(=O)c1ccc(/C=C/C(c2cc(Cl)cc(Cl)c2)C(F)(F)F)cc1Cl` (stereo partly drawn) [F95, 2-Chloro-4-((E)-3-(3,5-dichlorophenyl)-4,4,4-trifluorobut-1-en-1-yl)-N—((R)-1-((2,2,2-trifluoroethyl)sulfonyl)propan-2-yl)benzamide]: the mortality at 50 µg/cm2 in data set [1] and in data set [2] was 50 to 100% throughout. In addition, the “YFM % Control (or Mortality) rating” value in data set [3] was “A (80-100)”.
